Measurements taken from patent US20250276984A1, “SOLID STATE FORMS OF HER2 INHIBITORS” (Iambic Therapeutics, Inc., priority 2024, published 2025).
≈ marks a conversion by molar mass, not a printed value.

Legend:
[1] = Solubility estimated by solvent aliquot addition at ambient temperature; type: physicochemical; conditions: thermodynamic from solid
Excerpt: Solubilities were estimated by solvent aliquot addition at ambient temperature and reported to the nearest whole number; if complete dissolution was achieved by one aliquot addition, the value is reported as “>”; if solids were present, the value is reported as “<”. The actual solubility may be larger than the value calculated because of the use of solvent aliquots that were too large or due to a slow rate of dissolution.

[2] = Dynamic vapor sorption (DVS); type: physicochemical; set-up: Hysteresis: unit not given here
Procedure: By DVS, a weight gain of 2.8 weight %, consistent with a gain of 0.9 mol water, was observed from 6% to 95% RH. A complete desorption was observed from 95% to 6% RH. No significant hysteresis was observed. The resulting crystalline material was analyzed by XRPD and shown to the Form A.

[3] = Cycle 1, target RH 95.0%, sample RH 95.4%

- solubility ([1]; aqueous with cosolvent or surfactant or cyclodextrin, 10:90 dioxane/water v/v): < 1 mg/mL
- solubility ([1]; aqueous with cosolvent or surfactant or cyclodextrin, 20:80 MeOH/water v/v): < 1 mg/mL
- solubility ([1]; aqueous with cosolvent or surfactant or cyclodextrin, 35:65 THF/water v/v): 17 mg/mL (≈ 30.8 mM)
- solubility ([1]; aqueous with cosolvent or surfactant or cyclodextrin, 50:50 ACN/water v/v): > 72 mg/mL
- solubility ([1]; aqueous with cosolvent or surfactant or cyclodextrin, 50:50 DMAc/water v/v): 10 mg/mL (≈ 18.1 mM)
- solubility ([1]; aqueous with cosolvent or surfactant or cyclodextrin, 50:50 MeOH/water v/v): 4 mg/mL (≈ 7.25 mM)
- solubility ([1]; aqueous with cosolvent or surfactant or cyclodextrin, 50:50 THF/water v/v): > 31 mg/mL
- solubility ([1]; aqueous with cosolvent or surfactant or cyclodextrin, 50:50 acetone/water v/v): 24 mg/mL (≈ 43.5 mM)
- solubility ([1]; aqueous with cosolvent or surfactant or cyclodextrin, 50:50 dioxane/water v/v): 29 mg/mL (≈ 52.6 mM)
- solubility ([1]; organic solvent or mixture, 2-MeTHF): 5 mg/mL (≈ 9.06 mM)
- solubility ([1]; organic solvent or mixture, 10:90 chloroform/IPA v/v): 27 mg/mL (≈ 48.9 mM)
- solubility ([1]; organic solvent or mixture, 20:80 MeOH/EtOAc v/v): > 51 mg/mL
- solubility ([1]; organic solvent or mixture, 30:70 DCM/toluene v/v): 9 mg/mL (≈ 16.3 mM)
- solubility ([1]; organic solvent or mixture, 30:70 DMAc/MTBE v/v): 29 mg/mL (≈ 52.6 mM)
- solubility ([1]; organic solvent or mixture, 30:70 EtOH/toluene v/v): > 88 mg/mL
- solubility ([1]; organic solvent or mixture, 50:50 DCM/toluene v/v): 50 mg/mL (≈ 90.6 mM)
- solubility ([1]; organic solvent or mixture, 50:50 DMAc/toluene v/v): > 28 mg/mL
- solubility ([1]; organic solvent or mixture, 50:50 EtOAc/IPA v/v): 17 mg/mL (≈ 30.8 mM)
- solubility ([1]; organic solvent or mixture, 50:50 EtOAc/MIBK v/v): 4 mg/mL (≈ 7.25 mM)
- solubility ([1]; organic solvent or mixture, 70:30 THF/heptane v/v): 10 mg/mL (≈ 18.1 mM)
- solubility ([1]; organic solvent or mixture, ACN): 7 mg/mL (≈ 12.7 mM)
- solubility ([1]; organic solvent or mixture, Acetone): 15 mg/mL (≈ 27.2 mM)
- solubility ([1]; organic solvent or mixture, DCM): > 88 mg/mL
- solubility ([1]; organic solvent or mixture, DMAc): > 110 mg/mL
- solubility ([1]; organic solvent or mixture, EtOAc): 3 mg/mL (≈ 5.44 mM)
- solubility ([1]; organic solvent or mixture, IPA): 3 mg/mL (≈ 5.44 mM)
- solubility ([1]; organic solvent or mixture, MIBK): 3 mg/mL (≈ 5.44 mM)
- solubility ([1]; organic solvent or mixture, MTBE): < 1 mg/mL
- solubility ([1]; organic solvent or mixture, MeOH): > 116 mg/mL
- solubility ([1]; organic solvent or mixture, THF): 38 mg/mL (≈ 68.9 mM)
- solubility ([1]; organic solvent or mixture, chloroform): > 100 mg/mL
- solubility ([1]; organic solvent or mixture, cyclohexane): < 1 mg/mL
- solubility ([1]; organic solvent or mixture, dioxane): 32 mg/mL (≈ 58 mM)
- solubility ([1]; organic solvent or mixture, heptane): < 2 mg/mL
- solubility ([1]; organic solvent or mixture, toluene): < 1 mg/mL
- solubility ([1]; water): < 1 mg/mL
- Sorp Mass Change ([2]; Cycle 1, target RH 5.0%, sample RH 5.5%): 0.004%
- Desorp Mass Change ([2]; Cycle 1, target RH 5.0%, sample RH 5.8%): −0.017%
- Hysteresis ([2]; Cycle 1, target RH 15.0%): −0.006
- Desorp Mass Change ([2]; Cycle 1, target RH 15.0%, sample RH 15.3%): 0.271%
- Sorp Mass Change ([2]; Cycle 1, target RH 15.0%, sample RH 15.5%): 0.277%
- Hysteresis ([2]; Cycle 1, target RH 25.0%): 0.039
- Sorp Mass Change ([2]; Cycle 1, target RH 25.0%, sample RH 24.6%): 0.609%
- Desorp Mass Change ([2]; Cycle 1, target RH 25.0%, sample RH 25.0%): 0.648%
- Hysteresis ([2]; Cycle 1, target RH 35.0%): 0.075
- Sorp Mass Change ([2]; Cycle 1, target RH 35.0%, sample RH 34.3%): 1.034%
- Desorp Mass Change ([2]; Cycle 1, target RH 35.0%, sample RH 34.8%): 1.109%
- Hysteresis ([2]; Cycle 1, target RH 45.0%): 0.104
- Sorp Mass Change ([2]; Cycle 1, target RH 45.0%, sample RH 44.4%): 1.470%
- Desorp Mass Change ([2]; Cycle 1, target RH 45.0%, sample RH 44.9%): 1.573%
- Hysteresis ([2]; Cycle 1, target RH 55.0%): 0.123
- Sorp Mass Change ([2]; Cycle 1, target RH 55.0%, sample RH 54.3%): 1.811%
- Desorp Mass Change ([2]; Cycle 1, target RH 55.0%, sample RH 54.8%): 1.934%
- Hysteresis ([2]; Cycle 1, target RH 65.0%): 0.112
- Sorp Mass Change ([2]; Cycle 1, target RH 65.0%, sample RH 64.4%): 2.087%
- Desorp Mass Change ([2]; Cycle 1, target RH 65.0%, sample RH 64.9%): 2.199%
- Hysteresis ([2]; Cycle 1, target RH 75.0%): 0.116
- Sorp Mass Change ([2]; Cycle 1, target RH 75.0%, sample RH 74.5%): 2.315%
- Desorp Mass Change ([2]; Cycle 1, target RH 75.0%, sample RH 75.1%): 2.431%
- Hysteresis ([2]; Cycle 1, target RH 85.0%): 0.096
- Sorp Mass Change ([2]; Cycle 1, target RH 85.0%, sample RH 85.1%): 2.559%
- Desorp Mass Change ([2]; Cycle 1, target RH 85.0%, sample RH 86.2%): 2.656%
- Desorp Mass Change [2, 3]: 2.849%
- Sorp Mass Change [2, 3]: 2.849%
- water gain consistent with DVS weight gain ([2]; from 6% to 95% RH): 0.9 mol water
- weight gain by DVS ([2]; from 6% to 95% RH): 2.8 weight %
SMILES: Cc1cc(Nc2ncnn3ccc(C4CCN(C(=O)/C=C/CN(C)C)CC4)c23)ccc1Oc1ccn2ncnc2c1 [Compound 1 Form A, (E)-1-(4-(4-((4-([1,2,4]triazolo[1,5-a]pyridin-7-yloxy)-3-methylphenyl)amino)pyrrolo[2,1-f][1,2,4]triazin-5-yl)piperidin-1-yl)-4-(dimethylamino)but-2-en-1-one]
